# Measured values from US8198033B2, “Methods and materials for observing apoptosis” (Genentech, Inc., priority 2006, dated 2012).
# Columns and labels:
# Type in all cases: cell-based, human
# [1] = test system: AP2α, AP1/2β, clathrin heavy chain (CHC), dynamin; experiment: Immunoblot for cleavage of clathrin-dependent endocytosis machinery and caspases in cell lysates
# Procedure: (b) Colo205 cells were treated as in (a) and analyzed by immunoblot for processing of specific components of various types of clathrin-associated endocytic trafficking.
# Open arrows indicate cleavage products and solid arrows indicate full-length proteins.
# (c) BJAB cells were treated with crosslinked Apo2L/TRAIL and processing of dynamin was determined by immunoblot.
# The cells were analyzed by immunoblot for processing of caspase-8, caspase-9, caspase-3, and AP2α.
# Human colorectal adenocarcinoma Colo205 cells human B cell lymphoma BJAB cells and human T cell carcinoma Jurkat wild type cells (A3 clone), FADD-deficient (E1) and caspase-8-deficient (I9.3) were cultured in RPMI 1640+10% fetal bovine serum (FBS)+2 mM glutamine+1000 U/ml Penicillin-Streptomycin (Life Technologies). Human cervical carcinoma HeLa-M cells human breast adenocarcinoma MCF7 and human colorectal adenocarcinomas HCT15, HCT8, SW948, Colo320, human fibrosarcoma HT180 (ATCC), HCT116 Bax(−/−), HCT116 Bax(+/−) were grown in 50:50 Dulbecco's modified Eagle's and FK12 medium+10% FBS+1000 U/ml Penicillin-Streptomycin. cDNA clones encoding temperature-sensitive dynamins were the G273D mutant and dominant negative K44A mutant dynamin-1 (Dyn^G273D and Dyn^K44A, respectively). Dyn^G273D was expressed from pHUSH-ProEx, a single retroviral plasmid tetracycline-inducible expression system constructed at Genentech. The cDNA was first cloned into a shuttle plasmid containing a CMV enhancer-promoter sequence with two copies of the tetracycline operator TetO2, then transferred via in vitro phage lamda-based recombination, or Gateway® technology (Invitrogen, Carlsbad), to a Moloney murine leukemia virus backbone vector in which the wild type Tet repressor is driven by a separate β-actin promoter and followed by an internal ribosomal entry sequence and puromycin selection cassette. Dyn^K44A was expressed from the 2-vector tetracycline-inducible retroviral expression system, pRevTet-On/pRev-Tre (Clontech), using serial infections. Retroviral vectors were transfected into Phoenix amphotropic Moloney Murine Leukemia Virus packaging cells using Lipofectamine 2000 […]. Retroviral particles were harvested and used in HeLa-M and BJAB cell infections as described previously (Simpson et al. J Cell Biol 137, 835-45, 1997). Dyn^G273 infected cells were puromycin selected (2-3 μg/ml) for 1-2 weeks and cloned either by manually picking individual HeLa-M colonies or by FACS sorting of resistant BJAB cells (gated for exclusion of propidium iodide) and single cell seeding in 96-well cell culture plates using an EPICS ELITE-ESP equipped with an Autoclone device (Coulter, Hialeah, Fla.). Cell clones were screened for uniformity of doxycycline inducible dynamin-1 expression by immunofluorescence microscopy. Dyn^K44A-infected cells were hygromycin B (400 μg/ml) and G418 (1 mg/ml) selected for 1-2 weeks. Induction with doxycycline (1 μg/ml) was performed at 32° C. for 72 hr as described previously (Damke et al. J Cell Biol 131, 69-80 1995). Vincristine sulfate (#T-117), Adriamycin.HCL (GR-319) were purchased from Biomol, tetracycline-free FBS from Hyclone, Puromycin from Clontech and Doxycyclin from Sigma. zVAD-fmk (asN-benzyloxycarbonyl-Val-Ala-Asp-fluoromethylketone) was obtained from MD Biosciences (#FK-009). […]
# BJAB and Colo205 cells = experiment: Transferrin (Tf) endocytosis rate by flow cytometry
# Procedure: The cells were then equilibrated on ice for 30 min with Alexa-647-conjugated Tf (^647TF) and uptake at 37° C. was measured by flow cytometry. Each endocytosis rate was derived from the slope of the initial linear phase of a 4 min uptake kinetics plot (a, inset). […] Rates were normalized to the DMSO treated sample (±SEM).
# Sedimented cells were resuspended in cold 2% paraformaldehyde/PBS and mean fluorescence intensity of 10,000 cells quantified with a Coulter Epics Elite-ESP flow cytometer (Hialeah, Fla.). Endocytic rates were determined from linear slopes of steady-state internal/surface plots (see, e.g., Wiley, H. S. et. al, J Biol Chem 257, 4222-9 (1982)). For temperature-shift experiments, ice binding incubations were avoided. Instead, cells were preconditioned for 20 min and maintained at 30° C. or 38° C. in binding medium, incubated an additional 0 (control) or 20 min with ^647Tf, chilled on ice for 30 min, and processed for flow cytometry to determine internal/surface ^647Tf ratios.
# DR5 = experiment: Temperature-shift DR5 uptake in DynG273D-transduced BJAB cells; settings: doxycyclin-stimulated dynG273D expression, 20 min
# Procedure: (a-d) Dyn^G273D-transduced HeLa-M cells were puromycin-selected, doxycycline-induced, pre-incubated for 20 min at the indicated temperature, then incubated another 20 min in the presence of Alexa-488 conjugated Tf (^488Tf). Cells were then processed for immunofluorescence microscopy using a dynamin-1 specific antibody. (e, f) Nontransduced (parental) or clonal Dyn1^G273D-transduced BJAB cells with (+dox) or without (no dox) doxycycline induction were assayed for ^488Tf or ^6475C7 uptake over a 20 min period at 30° C. (white bars) or 38° C. (black bars) by flow cytometry and means plotted (±SD).
# Cells were acid stripped or not and quantified by flow cytometry.
# DISC = DISC immunoprecipitation
# Procedure: (a) BJAB cells were equilibrated with ^647Tf on ice, incubated for the indicated uptake interval at 37° C. or on ice, then fluorescence quantified by flow cytometry. […] DISC-associated FADD and caspase-8 were visualized by immunoblot. (c, d) Dyn^G273D-transduced BJAB cells were treated with buffer (No Dox) or doxycyline (Dox) and shifted to 38° C. for 20 min to inactivate dynamin. The cells were treated with crosslinked Apo2L/TRAIL for the indicated amounts of time and the DISC was immunoprecipitated. DISC-associated FADD and caspase-8 were visualized by immunoblot (c) or DISC-associated caspase-8 activity was measured as described previously (Sharp et al. J Biol Chem 280, 19401-409, 2005).
# BJAB cells (1×10^7 per time point) were treated with Flag-Apo2L/TRAIL cross-linked by anti-FLAG M2 Abs, collected, lysed, immunoprecipitated and the DISC was analyzed as described (see, e.g., Kischkel, F. C. et al., Immunity 12, 611-20 (2000)).
# caspase-3/7 = experiment: Caspase-3/7 activity assay (Apo-One); settings: after induction of dynG273D, 38° C. compared to 30° C.
# Procedure: The caspase-3/7 assay was performed using Apo-One Homogenous Caspase-3/7 Assay (Promega). […] Lysates were incubated at room temperature for 1 hour before reading in a fluorometer at 485/530 […].
# [2] = test system: DynG273D-transduced BJAB cells; experiment: Apoptosis assay (sub-diploid DNA, DNA fragmentation); settings: induction of dynG273D and temperature-shift to 38° C.
# Procedure: Cells were stained with propidium iodide after ethanol fixation and RNase treatment and the amount of sub-diploid DNA was analyzed by flow cytometry as previously described, using Expo32 software with an Epics XL.MCL cytometer (Coulter Beckman), (see, e.g., Nicholson, D. W., Cell Death Differ 6, 1028-42 (1999)).
# [3] = MCF7 cells, deficient in caspase-3
substance,measurement,setting,value
"Apo2L/TRAIL: Human recombinant soluble Apo2L/TRAIL in non-tagged (trimeric) or Flag-tagged, antibody-crosslinked versions; SEQ ID NO: 7",Start of depletion of full-length dynamin after stimulation,"[1]; BJAB cells, crosslinked Apo2L/TRAIL",≤ 1 h
same,Cleavage of AP2α isoform C,"[1]; BJAB, Colo205, LS1034 and SW948 cells",did not induce cleavage of isoform C
same,Caspase processing,[1]; Bax+/- HCT116 cells,stimulated processing of both caspase-8 and -3
same,Caspase processing,[1]; Bax-/- HCT116 cells,only of caspase-8
same,"Proteolysis of structurally analogous adaptors (AP1α, AP3β and δ, AP4ε, β-COP, Sec23)","[1]; Colo205 cells, similar timeframe",did not induce proteolysis
same,CHC cleavage,[1]; [3],did not stimulate CHC cleavage
same,Processing of caspase-8 and AP2α,[1]; [3],relatively weak and slow processing of caspase-8 and AP2α
same,Processing of AP2α and CHC,[1]; caspase-8-deficient or FADD-deficient mutant Jurkat cell lines,neither ligand stimulated processing of these targets
same,"Processing of caspase-8 and -3 and cleavage of AP2α, AP1/2β and CHC","[1]; several cancer cell lines, susceptible Colo205, BJAB, HeLa-M, not resistant HCT8","cleavage of AP2α, AP1/2β, and clathrin heavy-chain (CHC)"
same,"Time within which caspase processing and AP2α, AP1/2β, CHC cleavage occurred","[1]; susceptible cell lines Colo205, BJAB, HeLa-M",≤ 2 h
same,Cleavage of AP2α and CHC,[1]; wt Jurkat T cells,induced cleavage of AP2α and CHC
same,Inhibition of the rate of Tf endocytosis,"BJAB and Colo205 cells; BJAB and Colo205 cells, pretreatment at 37° C.",75-85%
same,Reduction of Tf endocytosis rate,"BJAB and Colo205 cells; Colo205 cells, extended exposure for 2 hr at 37° C.",5 fold
same,Ligand-induced DR5 uptake,DR5; 30° C.,~25%
same,Ligand-induced DR5 uptake,DR5; 38° C.,~10%
same,DISC assembly with Tf endocytosis blocked,DISC; BJAB cells chilled on ice,still recruited FADD and caspase-8 to their respective receptors and processed caspase-8
same,"DISC formation, caspase-8 processing and activity despite endocytosis inhibition","DISC; dynG273D BJAB cells, 38° C.","comparable DISC formation, caspase-8 processing, and caspase-8 activity in the DISC"
same,Ligand-stimulated caspase-3/7 enzymatic activity,caspase-3/7,substantial increase
same,Apoptosis (cells with fragmented DNA),[2],augmented apoptosis
